Measurements reported in PubChem BioAssay AID248 (DTP/NCI, 2004).
Inconclusive results and toxic doses are left out. Rule as the data show it: active = T/C of 150% or more; inactive = T/C below 125%.

Tested on: L1210 leukemia ip in BDF1 mice, survival T/C
Assay: NCI In Vivo Anticancer Drug Screen. Data for tumor model L1210 Leukemia (intraperitoneal) in B6D2F1 (BDF1) mice
Conditions: endpoint: mean survival time, higher = longer survival
Method in brief: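 Tumor was transplanted into mice, which were then dosed with test compound or vehicle alone. Survival was recorded for each group, and the treated figure was expressed relative to the control figure.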

[1] = dose: 100.0 mg/kg/injection, schedule: Q01DX009 (ip), vehicle: saline with Tween-80
[2] = dose: 200.0 mg/kg/injection, schedule: Q01DX009 (ip), vehicle: saline with Tween-80
[3] = dose: 400.0 mg/kg/injection, schedule: Q01DX009 (ip), vehicle: saline with Tween-80
[4] = dose: 100.0 mg/kg/injection, schedule: Q04DX003 (ip), vehicle: Klucel (hydroxypropylcellulose) (HPC)
[5] = dose: 200.0 mg/kg/injection, schedule: Q04DX003 (ip), vehicle: Klucel (hydroxypropylcellulose) (HPC)
[6] = dose: 400.0 mg/kg/injection, schedule: Q04DX003 (ip), vehicle: Klucel (hydroxypropylcellulose) (HPC)
[7] = dose: 100.0 mg/kg/injection, schedule: Q01DX009 (ip), vehicle: Klucel (hydroxypropylcellulose) (HPC)
[8] = dose: 200.0 mg/kg/injection, schedule: Q01DX009 (ip), vehicle: Klucel (hydroxypropylcellulose) (HPC)
[9] = dose: 100.0 mg/kg/injection, schedule: Q04DX003 (ip), vehicle: saline
[10] = dose: 200.0 mg/kg/injection, schedule: Q04DX003 (ip), vehicle: saline

Measured: T/C

CCC[CH2][Sn]1([CH2]CCC)[O]OC(c2ccccc2)[O]1 (stereo not drawn)
inactive: dose: 0.5 mg/kg/injection, schedule: Q01DX009 (ip), vehicle: saline sonified 102 % of control | dose: 1.0 mg/kg/injection, schedule: Q01DX009 (ip), vehicle: saline sonified 98 % of control | dose: 2.0 mg/kg/injection, schedule: Q01DX009 (ip), vehicle: saline sonified 104 % of control

CCCCCCCCCCCCCCCCOc1ccc(Sc2ccc([N+](=O)[O-])cc2)cc1
inactive: dose: 400.0 mg/kg/injection, schedule: Q01DX001 (ip), vehicle: Klucel (hydroxypropylcellulose) (HPC) 87 % of control

O=S(=O)(O)C(O)c1cccc2ccccc12 (stereo not drawn)
inactive: [1] 105 % of control | [2] 105 % of control | [3] 115 % of control

N=C(N)c1nn(C2OC(CO)C(O)C2O)c2ncnc(N)c12 (stereo not drawn)
inactive: dose: 3.12 mg/kg/injection, schedule: Q01DX009 (ip), vehicle: Klucel (hydroxypropylcellulose) (HPC) 102 % of control | dose: 6.25 mg/kg/injection, schedule: Q01DX009 (ip), vehicle: Klucel (hydroxypropylcellulose) (HPC) 124 % of control | dose: 12.5 mg/kg/injection, schedule: Q01DX009 (ip), vehicle: Klucel (hydroxypropylcellulose) (HPC) 115 % of control
active: dose: 9.0 mg/kg/injection, schedule: Q01DX005 (ip), vehicle: saline 159 % of control | dose: 15.0 mg/kg/injection, schedule: Q01DX005 (ip), vehicle: saline 185 % of control | dose: 25.0 mg/kg/injection, schedule: Q01DX005 (ip), vehicle: saline 201 % of control | dose: 42.0 mg/kg/injection, schedule: Q01DX005 (ip), vehicle: saline 204 % of control

CCCCCCC(C)OB(OC(C)CCCCCC)OC(C)CCCCCC (stereo not drawn)
inactive: [4] 103 % of control | [5] 95 % of control | [6] 93 % of control

C1C2OC2CC2OC12 (stereo not drawn)
inactive: [1] 95 % of control | [2] 96 % of control | [3] 95 % of control

CC(=O)CC(=O)Nc1cccc(Br)c1
inactive: dose: 100.0 mg/kg/injection, schedule: Q04DX003 (ip), vehicle: saline with Tween-80 102 % of control | dose: 200.0 mg/kg/injection, schedule: Q04DX003 (ip), vehicle: saline with Tween-80 97 % of control | dose: 400.0 mg/kg/injection, schedule: Q04DX003 (ip), vehicle: saline with Tween-80 97 % of control

CC(=O)Nc1cc(Cl)c(Cl)cc1N
inactive: [7] 95 % of control | [8] 98 % of control | dose: 400.0 mg/kg/injection, schedule: Q01DX009 (ip), vehicle: Klucel (hydroxypropylcellulose) (HPC) 96 % of control

CCNC(C)(C)C(Cl)c1cccs1 (stereo not drawn)
inactive: dose: 100.0 mg/kg/injection, schedule: Q01DX009 (ip), vehicle: saline 101 % of control | [9] 96 % of control | dose: 200.0 mg/kg/injection, schedule: Q01DX009 (ip), vehicle: saline 100 % of control | [10] 93 % of control

c1cc(N2CCOCC2)ccc1Cc1ccc(N2CCOCC2)cc1
inactive: [7] 102 % of control | [4] 93 % of control | [8] 109 % of control | [5] 101 % of control | [6] 93 % of control

CCOC(=O)CNN
inactive: dose: 4.0 mg/kg/injection, schedule: Q01DX009 (ip), vehicle: saline 93 % of control | dose: 8.0 mg/kg/injection, schedule: Q01DX009 (ip), vehicle: saline 108 % of control | dose: 16.0 mg/kg/injection, schedule: Q01DX009 (ip), vehicle: saline 103 % of control | dose: 28.0 mg/kg/injection, schedule: Q01DX001 (ip), vehicle: saline 101 % of control | dose: 56.0 mg/kg/injection, schedule: Q01DX001 (ip), vehicle: saline 108 % of control | dose: 112.0 mg/kg/injection, schedule: Q01DX001 (ip), vehicle: saline 114 % of control

Cc1ccc(S(=O)(=O)OCC2C3CCC(C4CCC43)C2COS(=O)(=O)c2ccc(C)cc2)cc1 (stereo not drawn)
inactive: [4] 96 % of control | [5] 93 % of control | [6] 91 % of control

S=c1[nH]nc(NC2CCCCC2)s1
inactive: dose: 100.0 mg/kg/injection, schedule: Q01DX009 (ip), vehicle: other 91 % of control | [9] 88 % of control | [10] 91 % of control | dose: 400.0 mg/kg/injection, schedule: Q04DX003 (ip), vehicle: saline 86 % of control
